Measured values published in patent publication US7517891B2, “Camptothecin derivatives and improved synthetic methods” (Glyconix Corporation, priority 2005, dated 2009).

melting point: 172 to 176 °C (dec.)
SMILES: CC[C@@]1(OC(=O)CCCBr)C(=O)OCc2c1cc1n(c2=O)Cc2c-1nc1ccccc1c2CO
